Like-named read-outs stand apart in the source and are kept apart here.
Test system: perfused rat stomach
Assay: perfused rat stomach test (inhibition of gastric acid secretion stimulated via histamine receptors)
Type: in vivo
Text: Certain novel heterocyclic derivatives have now been found which have potent activity as H2-antagonists. […] Certain compounds according to the invention have the advantage of an extended duration of action .

Compound: CN(C)Cc1cc(CSCCNc2nnnn2C)cs1 [5(b), N-[2-[[5-(dimethylamino)methyl-3-thienylmethyl]thio]ethyl]-1-methyl-lH-tetrazol-5-amine]
- ED50: less than 0.22 mg/kg

Compound: CCCCCCNCc1cccc(OCCCNc2nnnn2C)c1 [7(b), N-[3-[3-[(hexylamino)methyl]phenoxy]propyl]-1-methyl-1H-tetrazol-5-amine hydrate (4:1)]
- ED50 (read-out: ED50): < 0.22 mg/kg

Compound: OCCn1nnnc1NCCCOc1cccc(CN2CCCCC2)c1 [Example 4, 5-[[3-[3-(1-piperidinylmethyl)phenoxy]propyl]amino]-1H-tetrazol-1-(2-ethanol) hydrate (4 : 1)]
- ED50 (read-out: ED50): < 0.22 mg/kg

Compound: CN(C)Cc1cccc(OCCCNc2nnnn2C)c1 [l(d), l-methyl-N-[[3-[3-(dimethylamino)methyl]phenoxy]propyl]-lH-tetrazol-5-amine]
- ED50 (read-out: ED50): < 0.22 mg/kg

Compound: CC(C)n1nnnc1NCCCCOc1cccc(CN2CCCCC2)c1 [1(c), l-(l-methylethyl)-N-[4-[3-(1-piperidinylmethyl)phenoxy]butyl]-1H-tetrazol-5-amine]
- ED50 (read-out: ED50): < 0.22 mg/kg

Compound: Cn1nnnc1NCCCOc1cccc(CN2CCCCC2)c1 [l(a), 1-Methyl-N-[3-[3-(1-piperidinylmethyl)phenoxy]propyl]-1H-tetrazol-5-amine]
- ED50 (read-out: ED50): < 0.22 mg/kg
